The text below walks through data of PubChem BioAssay (NCI).

What all share (experiment): NCI anticancer screen, dose series, 48 h
Assay [1] deals with HS 578T breast.
For assay [2], the system named is K-562 leukemia.
Assay [3] deals with NCI-H460 lung.
Assay [4] has as its system MDA-MB-231 breast.
For assay [5], the system named is HT29 colon.
Assay [6] deals with LOX IMVI melanoma.
The subject of assay [7] is 786-0 renal.
For assay [8], the system named is A549 NSCLC.
In assay [9] the test system is CCRF-CEM leukemia.
Assay [10] relates to OVCAR-8 ovarian.
Assay [11] relates to TK-10 renal.
For assay [12], the system named is MOLT-4 leukemia.
Assay [13] has as its system SR leukemia.
For assay [14], the system named is T-47D breast.
Assay [15] has as its system NCI-H226 lung.
Assay [16] concerns DU-145 prostate.
Assay [17] has as its system SF-539 CNS.
Assay [18] deals with SK-MEL-5 melanoma.
Assay [19] has as its system HCC-2998 colon.
In assay [20] the test system is HL-60(TB) leukemia.

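Test compounds were applied to cells in 96-well plates for 48 hours at 5 doses. TGI is the concentration that stops growth completely.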

Take `O=C(N1CCOCC1)C1(c2ccccc2)CCNCC1`: the TGI in assay [1], in [2], in assay [3], in assay [4], in assay [5] and in [6] was more than 100 µM each time. The TGI in assay [7] is more than 100 µM; in [8], more than 100 µM; in [9], 78.8 µM; in assay [10] it was more than 100 µM; in assay [11], more than 100 µM; in assay [12] it was more than 100 µM. For the same molecule, the TGI in [13], in assay [14], in assay [15], in assay [16], in assay [17] and in assay [18] was more than 100 µM in each case.
As for `COc1cc(C2SCC(=O)N2c2ccc(-c3ccc(-n4c(-c5ccccc5)nc5ccccc5c4=O)cc3)cc2)ccc1O` (stereo not drawn), the TGI in assay [1], in assay [2], in assay [3], in assay [4], in assay [5] and in assay [6] was more than 100 µM in each case. The TGI in assay [7], in assay [8], in assay [9], in [10], in assay [19] and in [11] was more than 100 µM each time. The TGI is more than 100 µM in assay [12]; 71.5 µM in assay [14]; more than 100 µM in assay [15]; more than 100 µM in assay [16]; more than 100 µM in [17]; more than 100 µM in assay [18]. Also, the TGI in assay [20] was more than 100 µM.
As to `CC/C(Cl)=N\OC(=O)Nc1ccccc1OC(F)(F)F`, the TGI is more than 68.2 µM in assay [1]; 4.55 µM in [2]; 44.2 µM in [3]; 34.2 µM in assay [4]; 44.4 µM in assay [5]; 5.65 µM in [6]. For the same molecule, the TGI in [7] turned out to be 23.5 µM; in assay [8], 51.5 µM; in [9] it was 3.42 µM; in assay [10], 35.9 µM; in assay [19] it was 37.8 µM; in assay [11] it was 23.8 µM. The TGI worked out at 4.77 µM in [12]; 14.4 µM in assay [14]; 38.1 µM in [15]; 33.9 µM in [16]; 31 µM in assay [17]; 22.1 µM in assay [18]. In addition, the TGI in assay [20] was 3.6 µM.
On to `COc1ccc(OC)c(C2CCCc3c2cnc2nc(N)nc(N)c32)c1` (stereo not drawn), for which the TGI in assay [1], in [2], in [3], in [4], in assay [5] and in assay [6] was more than 100 µM throughout. For the same molecule, the TGI in assay [7], in assay [8], in assay [9], in [10], in assay [11] and in [12] was more than 100 µM each time. Besides, the TGI in assay [13], in assay [14], in [15], in [16], in [17] and in assay [18] was more than 100 µM throughout. For the same molecule, the TGI in assay [20] was more than 100 µM.
Take `Cn1c(=O)nc2n(CCO)ccnc-2c1=O`: the TGI in [1], in [2], in assay [3], in assay [4], in assay [5] and in [6] was more than 100 µM in each case. Besides, the TGI in assay [7], in [8], in assay [9], in [10], in [19] and in assay [11] was more than 100 µM throughout. Also, the TGI in assay [12], in assay [13], in assay [14], in assay [15], in assay [16] and in assay [17] was more than 100 µM throughout. Moreover, in [18], the TGI is more than 100 µM.
Take `Cc1c(C)c(S(=O)(=O)N(CCCCCN)OCCCN)c(C)c2c1OC(C)(C)CC2`: the TGI in assay [1] was 28.4 µM; in assay [2] it was more than 59.7 µM; in [3] it was 19.7 µM; in assay [4] it was 31.7 µM; in assay [5], 28.7 µM; in assay [6], more than 44.4 µM. Moreover, the TGI in assay [7] is 29 µM; in assay [8] it was more than 100 µM; in assay [9] it was more than 23.5 µM; in assay [10], more than 50 µM; in assay [19], 6.05 µM; in assay [11], 37.8 µM. Moreover, the TGI in assay [12] is 48.5 µM; in assay [14] it was more than 57.8 µM; in assay [15], 32.7 µM; in assay [16] it was more than 70.5 µM; in assay [17], more than 100 µM; in [18], more than 50.4 µM. Moreover, the TGI in [20] was 5.92 µM.
Turning to `COCC[N+](CCNC(=O)c1cccc2c(N)c3cccc(C)c3nc12)(CCOC)Cc1ccc([N+](=O)[O-])cc1`, the TGI was 39.3 µM in [1]; 29.5 µM in [3]; 58.8 µM in assay [4]; 76.5 µM in [5]; 81.5 µM in assay [6]; more than 100 µM in assay [7]. For the same molecule, the TGI in assay [8] was more than 100 µM; in [9], 58.1 µM; in assay [10] it was more than 100 µM; in [19] it was 27.2 µM; in assay [11] it was more than 100 µM; in assay [12] it was 39.2 µM. The TGI in [13] was 35.3 µM; in assay [14] it was 37.3 µM; in assay [16], 59.1 µM; in assay [17] it was 56.7 µM; in assay [18] it was 22.9 µM; in [20], 40.1 µM.
For the molecule `COc1ccc(C(=O)/C=C2\c3ccccc3C(=O)N2C)cc1`, the TGI in [1], in [2], in assay [3], in assay [4], in assay [5] and in assay [6] was more than 100 µM throughout. In addition, the TGI in assay [7], in assay [8], in assay [9], in assay [10], in assay [11] and in assay [12] was more than 100 µM each time. Moreover, the TGI in assay [13], in [14], in assay [16], in [17] and in assay [18] was more than 100 µM throughout.
Take `COC(=O)c1cc(C)n2c1CS[C@@H]2c1ccccc1`: the TGI in assay [1], in assay [2], in assay [4], in assay [5], in assay [6] and in assay [7] was more than 100 µM each time. The TGI in assay [8] was more than 100 µM; in assay [9], more than 100 µM; in [10], more than 100 µM; in assay [11] it was more than 100 µM; in assay [12] it was 71.1 µM; in assay [13], 54.6 µM. In addition, the TGI in assay [14] is 93.1 µM; in [15] it was 89.1 µM; in assay [16] it was more than 100 µM; in [18] it was 44.3 µM; in [20], more than 100 µM.
For the molecule `CC1CC(=O)N2CCCNC2=C1C#N` (stereo not drawn), the TGI in [1], in assay [2], in assay [3], in assay [4], in [5] and in assay [6] was more than 100 µM throughout. The TGI in [7], in assay [8], in [9], in [10], in assay [19] and in assay [11] was more than 100 µM in each case. Also, the TGI in assay [12], in assay [13], in assay [14], in assay [15], in assay [16] and in assay [17] was more than 100 µM throughout. Moreover, the TGI in [18] was more than 100 µM.
Turning to `COc1ccc(/C=C/C(=O)c2nc3ccccc3[nH]2)cc1`, the TGI was more than 77.2 µM in [1]; more than 100 µM in assay [2]; 47.5 µM in [3]; 48.9 µM in assay [4]; 22.9 µM in [5]; 28.2 µM in assay [6]. Besides, the TGI in assay [7] was 32.2 µM; in assay [8], more than 81.8 µM; in assay [9], more than 100 µM; in assay [10], 51.1 µM; in assay [11] it was 47.2 µM; in [12] it was more than 67.1 µM. In addition, the TGI in [13] was more than 27.1 µM; in assay [14], 53.7 µM; in assay [15] it was more than 54.7 µM; in assay [16], 45.6 µM; in assay [17] it was 26.7 µM; in assay [18], 31.8 µM. The TGI in [20] was more than 29.7 µM.
On to `CCCCOP(=O)(OCCCC)/C(C#N)=C/c1ccc(C)o1`, for which the TGI in [1] was more than 100 µM; in [2], 71.3 µM; in [3] it was more than 100 µM; in [4], more than 100 µM; in assay [5] it was more than 100 µM; in assay [6] it was more than 100 µM. For the same molecule, the TGI in assay [7], in [8], in assay [10], in [19], in assay [11] and in [12] was more than 100 µM in each case. The TGI in assay [13] is more than 100 µM; in assay [14], more than 100 µM; in assay [15] it was 78.8 µM; in assay [16] it was more than 100 µM; in [17] it was more than 100 µM; in assay [18] it was 76.1 µM.
Turning to `NC(=O)Cc1ncn(-c2ccccc2)n1`, the TGI in [1], in [2], in [4], in assay [5], in assay [6] and in assay [7] was more than 100 µM each time. In addition, the TGI in assay [8], in assay [9], in [10], in assay [11], in assay [12] and in assay [13] was more than 100 µM throughout. In addition, the TGI in [14], in assay [15], in assay [16], in assay [17], in assay [18] and in assay [20] was more than 100 µM in each case.
With `C=CC1(c2ccc3ccccc3c2)OCC(CC)(CC)CO1`, the TGI in [1] is 41.6 µM; in assay [2], 48.1 µM; in [3], 46.8 µM; in assay [4] it was 33.9 µM; in assay [5], 57.5 µM; in assay [6], 34.5 µM. The TGI was 50.9 µM in assay [7]; more than 100 µM in assay [8]; 40.1 µM in [9]; more than 100 µM in [10]; 37.3 µM in assay [19]; 89.5 µM in [11]. Moreover, the TGI is 38.8 µM in assay [12]; 52.2 µM in assay [14]; 33.4 µM in assay [15]; more than 100 µM in [16]; 33.5 µM in [17]; 34 µM in [18]. The same molecule gave a TGI in assay [20] of 41.4 µM.
